Where two headings read alike, the source gives them in different places.
What was measured:
[1] = Cytotoxicity in the plaque reduction assay cultures; assay type: cell-based, African Green Monkey; settings: monkey; minimum concentration of test compound which caused cytotoxicity; Vero cells, 4 days; highest concentration tested 100; read-out: MTD
Experimental: (§1) Vero (African Green Monkey Kidney) cells were grown to confluence in 24 well multidishes, each well being 1.6 cm in diameter. The cells were infected with Herpes simplex type 1 virus (HFEM strain) and overlaid with 0.5ml of 0.9% agarose (w/v) in maintenance medium. Test compounds prepared in maintenance medium in concentrations ranging from 100 to 0.03 pg/ml in half-log dilution steps, were added in 0.5ml volume. The virus infected cultures were then incubated at 37 °C for 4 days before fixing in 4% formaldehyde solution and staining with carbolfuchsin.

[2] = test system: Herpes simplex type 1 virus (HFEM strain); test: Plaque reduction assay in virus-infected Vero cells; assay type: cell-based; settings: Human alphaherpesvirus 1, 96 h, concentration causing 50% reduction in number of virus plaques, HSV-1 HFEM strain, 4 days incubation at 37 C, read-out: PDD50 (the source's name)
Experimental: as §1

SMILES	IC50 ([2]; molar units) [µM]	IC50 [2] [µg/mL]	MCC at 96 h [1] [µg/mL]
O=c1[nH]c(=O)n([C@H]2C[C@H](OC3CCCCO3)[C@@H](CO)O2)cc1/C=C/Br (stereo partly drawn) [Example 5, 5-(E-2-bromovinyl)-2'-deoxy-3'-O-(tetrahydropyran-2-yl)uridine]	4.3	1.8	> 100
O=c1[nH]c(=O)n([C@H]2C[C@H](OC3CCCO3)[C@@H](CO)O2)cc1/C=C/Br (stereo partly drawn) [Example 2, 5-(E-2-bromovinyl)-2'-deoxy-3'-O-(tetrahydrofuran-2-yl)uridine]	2.8	1.1	> 100
CCOC(CC)OC[C@H]1O[C@@H](n2cc(/C=C/Br)c(=O)[nH]c2=O)C[C@@H]1O (stereo partly drawn) [Example 8, 5-(E-2-bromovinyl)-2'-deoxy-5'-O-(1-ethoxypropyl)uridine]	15	6.4	> 100
O=c1[nH]c(=O)n([C@H]2C[C@H](OCOCc3ccccc3)[C@@H](COCOCc3ccccc3)O2)cc1/C=C/Br [Example 10, 3',5'-Bis-O-benzoxmethl-5-(E-2-bromovinyl)-2'-deoxuridine]	126	72	> 100
O=c1[nH]c(=O)n([C@H]2C[C@H](OC3CCCCO3)[C@@H](COC3CCCCO3)O2)cc1/C=C/Br (stereo partly drawn) [Example 4, 5-(E-2-Bromovinyl)-2'-deoxy-3',5'-bis-O-(tetrahdropyropyran-2-yl)uridine]	34	17	100
O=c1[nH]c(=O)n([C@H]2C[C@H](O)[C@@H](COC3CCCCO3)O2)cc1/C=C/Br (stereo partly drawn) [Example 6, 5-(E-2-bromo-vinyl) -2'-deoxy-5'-O-(tetrahydropyran-2-yl) uridine]	170	69	> 100
O=c1[nH]c(=O)n([C@H]2C[C@H](OC3CCCO3)[C@@H](COC3CCCO3)O2)cc1/C=C/Br (stereo partly drawn) [Example 1, 5-(E-2-Bromovinyl)-2'-deoxy-3',5'-bis-O-(tetrahydrofuran-2-yl)uridine]	9	4.3	> 100

The next lines start with results.

IC50 ([2]; molar units) [µM]	IC50 [2] [µg/mL]	SMILES	MCC at 96 h [1] [µg/mL]
15	6.6	O=c1[nH]c(=O)n([C@H]2C[C@H](O)[C@@H](COCOCc3ccccc3)O2)cc1/C=C/Br [Example 12, 5'-O-benzoxymethyl-5-(E-2-bromovinyl)-2'-deoxyuridine]	> 100
7.5	3.3	CCOC(CCl)O[C@H]1C[C@H](n2cc(/C=C/Br)c(=O)[nH]c2=O)O[C@@H]1CO (stereo partly drawn) [Example 20, 5-(E-2-bromovinyl)-3'-O-(2-chloro-1-ethoxyethyl)-2^1-deoxyuridine]	> 100
43	19	CCOC(CCl)OC[C@H]1O[C@@H](n2cc(/C=C/Br)c(=O)[nH]c2=O)C[C@@H]1O (stereo partly drawn) [Example 21, 5-(E-2-bromovinyl)-5'-0-(2-chloro-1-ethoxyethyl)-2'-deoxyuridine]	> 100
17	9.1	CCOC(CCl)OC[C@H]1O[C@@H](n2cc(/C=C/Br)c(=O)[nH]c2=O)C[C@@H]1OC(CCl)OCC (stereo partly drawn) [Example 19, 5-(E-2-Bromovinyl)-3',5'-bis-0-(2-chloro-1-ethoxyethyl)-2'-deoxyuridine]	> 100
